The values that follow come from patent publication US20230414556A1, “NANO-HEPATIC TARGETED EPIGALLOCATECHIN GALLATE IN DYSLIPIDEMIA” (priority 2022, published 2023).

Data set [1] in a line: Plasma lipid profile in high-fat diet mice (nutritionally induced hypercholesterolemia model). In kind it is in vivo, C57BL/6 mice. The note with it: oral. How it is done:
High fat diet male C57BL/6 mice aged 4-5 weeks and weighing 20-25 g were purchased from Taconic Biosciences, Inc. (Germantown, NY, USA). All animal studies were conducted at the animal facility of the Veteran Affairs Medical Center (VAMC) (Albany, NY, USA) in accordance with institutional guidelines for humane animal treatment and approved by the Institutional Animal Care & Use Committee (IACUC) at VAMC. Animals were maintained under specific pathogen-free conditions and housed under controlled conditions of temperature (20-24° C.) and humidity (60-70%) and 12 h light/dark cycle with ad libitum access to water and food. The mice were grouped into five arms (n=5). Administrated orally to the mice were water for vehicle control (VCtrl), Void nanoparticle (void NP), EGCG (30 mg/kg), Nano EGCG (NP-EGCG) and Nano-targeted EGCG (NPT-EGCG) at 30 mg/kg equivalent EGCG for 3 weeks. Blood was collected from retro-orbital after the 24 h, week 1, week 2 and week 3 treatment to measure the levels of plasma total cholesterol, LDL-C, HDL, free and cholesteryl esters. Animals were humanely sacrificed, and liver tissue was collected. The plasma contents of total cholesterol, LDL-C, HDL-C, free and cholesteryl esters were measured with the Cholesterol-HDL and LDL/VLDL assay kit according to the manufacturer's instructions (Abcam, Boston, MA, USA). Statistical analysis was performed using GraphPad Prism (San Diego, CA, USA) (Wilkinson, 1956). All data are presented as mean±standard deviation of the mean. The Mann-Whitney nonparametric test was used to determine differences in the groups. ***P<0.001, **P<0.01, *P<0.05 were considered as significant.

For data set [2] the following is noted: cited from earlier work.
For data set [3], the target named is T1, Hydroxy-3-methyl-glutaryl-CoA reductase (HMGR) (Homo sapiens, UniProt P04035).
T1 sequence (P04035 426-888 limits assumed): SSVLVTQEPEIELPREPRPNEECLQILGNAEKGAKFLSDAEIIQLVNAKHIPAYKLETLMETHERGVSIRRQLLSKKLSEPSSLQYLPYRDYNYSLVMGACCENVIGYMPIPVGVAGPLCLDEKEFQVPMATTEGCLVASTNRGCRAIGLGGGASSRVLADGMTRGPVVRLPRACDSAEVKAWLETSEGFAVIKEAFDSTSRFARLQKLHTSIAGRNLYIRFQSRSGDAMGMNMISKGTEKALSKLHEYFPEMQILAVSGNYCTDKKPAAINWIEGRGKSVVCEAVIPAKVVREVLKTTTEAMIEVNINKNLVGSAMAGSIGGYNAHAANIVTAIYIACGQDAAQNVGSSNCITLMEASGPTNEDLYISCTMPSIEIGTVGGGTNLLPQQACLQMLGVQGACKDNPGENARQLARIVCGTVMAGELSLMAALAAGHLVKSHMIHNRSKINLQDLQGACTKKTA
The note with it: competitive binding to the cofactor site; cited from earlier work.

The mark [4] stands for this setting: 30 mg/kg, week 3, compared to vehicle control and void NP.

Read-outs that look alike come from different tables or passages of the source.

As to (−)-epigallocatechin gallate [EGCG], the “decrease of plasma total cholesterol” value in data set [1] (30 mg/kg (equivalent) EGCG, week 3, compared to vehicle control and void NP) turned out to be 28%. Besides, the “plasma cholesteryl esters (in words)” value in data set [1] (30 mg/kg, week 2 and week 3) is given as “significant decrease”. Besides, in data set [1] (30 mg/kg, week 3), the “decrease in plasma LDL-C” value is reported as 3% and the “increase in plasma HDL-C” value is 10%. Further, in data set [1] (setting [4]), the “levels of free cholesterol in plasma (in words)” value is listed as “significant decrease”, the “reduction of plasma cholesteryl esters” value turned out to be 30% and the “reduction of plasma free cholesterol” value was 11%. For the same substance, in data set [2] (acidic solutions (pH<4)), the “stability of EGCG” value was “very stable”. Also, the “stability of EGCG” value in data set [2] (neutral and alkaline solutions) was “extremely unstable and degraded almost completely in a few minutes”. Moreover, the “inhibition of in vitro activity of HMGR” value in data set [3] is “potently inhibits”.
